Experimental data: patent publication US20180185476A1, “METHODS AND PHARMACEUTICAL COMPOSITIONS FOR INHIBITING LYMPHOCYTE PROLIFERATION IN A SUBJECT IN NEED THEREOF” (INSERM (Institut National de la Sante et de la Recherche …, priority 2013, published 2018)
“Also recorded” adds a separate entry of the source.

Tests used:
CTPS1-deficient cells = assay: Proliferation and CD25 expression of CTPS1-deficient T cells after addition of nucleotides or nucleosides; type: cell-based, human; settings: addition of nucleotides or nucleosides before stimulation
Text: (§1) Informed consent was obtained from donors, patients and families of patients. The study and protocols conform to the 1975 declaration of Helsinki as well as to local legislation and ethical guidelines. Genomic DNA extracted from peripheral blood cells was used for whole exome sequencing (Illumina) and sequencing of CTPS1. PBMCs were Ficoll-purified and activated with phytohemagglutinin (PHA) for 3 days, and then cultured in RPMI medium supplemented with 5% type AB human serum and IL-2 (100 UI/ml). T-cell blasts were restimulated with various mitogens and analyzed for memory and activation markers, calcium flux, cytokine secretions, apoptosis and TCR-CD3 signaling cascade molecules by immunoblotting. CTPS1 protein was detected by immunoblotting with an antibody raised against residues in the middle of the protein (341 to 355) (#SAB111071, Sigma). […] Proliferation was assessed after 96 hours by monitoring the dilution of CellTrace violet dye labelling. Cell cycle was determined by measuring the incorporation of EdU into newly synthesized DNA during 40 hours. The division indexes were calculated with the Flowjo software (BD Biosciences). For gene silencing of CTPS1 by shRNA expression (Openbiosystems), cells were transduced at day 3 of PHA stimulation. For rescue experiments, CTPS1-deficient cells were transduced with a lentiviral vector (Invitrogen) containing the CTPS1 gene and proliferation was performed 5 days after transduction. In long-term expansions, cells were repeatedly stimulated with CD3/CD28-coated beads every 48 h and the transduced GFP^+ cells in the cultures were determined by every 24 h. The intracellular content of nucleotides was measured by liquid chromatography-mass spectrometry (UPLC-xevoTQS, Waters). P values were calculated by two-tailed Student's t-test using PRISM software (GraphPad).

control T-cells = assay: T-cell proliferation in response to CD3 activation (CellTrace violet dye dilution); type: cell-based, human; settings: nucleotide added to deazauridine-treated control T cells
Text: as §1, with “For gene silencing of CTPS1 by shRNA expression (Openbiosystems), cells were transduced at day 3 of PHA stimulation. For rescue experiments, CTPS1-deficient cells were transduced with a lentiviral vector (Invitrogen) containing the CTPS1 gene and proliferation was performed 5 days after transduction.” left out, “The intracellular content of nucleotides was measured by liquid chromatography-mass spectrometry (UPLC-xevoTQS, Waters). P values were calculated by two-tailed Student's t-test using PRISM software (GraphPad).” left out

Row | SMILES | CD25 expression of CTPS1-deficient cells (CTPS1-deficient cells) | proliferation of CTPS1-deficient cells (CTPS1-deficient cells) | reversion of the inhibition of T-cell proliferation by deazauridine (control T-cells)
1 | Nc1ccn([C@@H]2O[C@H](CO)[C@@H](O)[C@H]2O)c(=O)n1 [cytidine] | recovered to a normal level | recovered to a normal level; also recorded: restored | –
2 | O=c1ccn([C@@H]2O[C@H](COP(=O)(O)OP(=O)(O)OP(=O)(O)O)[C@@H](O)[C@H]2O)c(=O)[nH]1 [UTP] | – | – | partially
3 | Nc1ccn([C@@H]2O[C@H](COP(=O)(O)OP(=O)(O)OP(=O)(O)O)[C@@H](O)[C@H]2O)c(=O)n1 [CTP, cytidine nucleotide triphosphate] | recovered to a normal level | recovered to a normal level; also recorded: restored to normal level | fully reverted
